How the values were obtained:
[1] = Drug metabolism study with rat and human liver microsomes fortified with NADPH; format: in vitro ADME; conditions: 10 μM, 1 mg/mL protein, 37° C., 60 minutes
Description: This study was carried out to evaluate drug metabolism of the test compounds by rat and human microsomes. Test compounds were incubated with liver microsomes of rat (BioreclamationIVT, Lot# NNK) and human (BioreclamationIVT, Lot# HPG) at 37° C. for 60 minutes. The substrate compound concentration was at 10 μM and final protein concentration in incubation mixtures was 1 mg/mL. Reaction was stopped by adding three fold acetonitrile to the reaction mixture. The samples were vortexed and centrifuged to precipitate the proteins. The supernatants were transferred to clean tubes for drying under a stream of N2. The dried residues were reconstituted with 30% acetonitrile. Aliquots were injected into an LC/UV/MS system for metabolite ID and profiling. The LC/UV/MS system was Agilent 1100 HPLC (pumps, autosampler and PDA) interfaced to LTQ ion trap mass spectrometer (ThermoFinnigan). HPLC column was Luna C18(2) column, 250×2.0 mm, 5 The HPLC mobile phase gradient system were water and acetonitrile with 0.05% trifluoroacetic acid in both solvents.
The experimental data indicated oxidation (hydroxylation) and de-alkylation were two of major metabolism paths for enasidenib and D8-enasidenib. For oxidation on aromatic ring, the molecular weights of hydroxylation products were the original ones plus an oxygen (+16). The C—H bond of enasidenib is replaced by C—OH. For oxidation on side chains, the molecular weights of hydroxylation products are different for enasidenib vs. D8-enasidenib. For enasidenib, the C—H bond is also replaced by C—OH and the difference in molecular weights is 16. However, since D8-enasidenib loses a deuterium due to hydroxylation (C-D is replaced by C—OH), the difference of its molecular weight to the original is 15 (that is +O+H−D=15). (FIG. 2) Thus, the hydroxylation products for aromatic ring and side chain for enasidenib and D8-enasidenib can be identified.

[2] = In vivo pharmacokinetic study on cynomolgus monkeys, intravenous; conditions: for AUC Differentiation (%): D8-enasidenib vs enasidenib; for AUC: cynomolgus monkey, plasma, iv, 1 mg/kg
Description: Test compounds were dissolved to yield a final concentration at 0.2 mg/mL. The study conducted formulation analysis by HPLC. The four animals assigned to the study had body weights within ±20% of the mean body weight. The study was conducted in a cross-over matter with four phases to minimize individual difference. The dose level was 1 mg/Kg and the drug was administrated through intravenous (IV) route.
Blood samples (approximately 1.2 mL/sample) were collected from the […] vein at appropriate time points. Samples were placed in tubes containing sodium heparin and stored on ice until centrifuged. Blood samples were collected pre-dose and post-dose at post-dose 2 minutes, 5 minutes, 15 minutes, 30 minutes, 1 hour, 2 hours, 3 hours, 4 hours, 6 hours, 8 hours and 24 hours. The blood samples were centrifuged at approximately 8,000 rpm for 6 minutes at 2-8° C. Plasma samples were then collected and stored frozen at approximately −80° C. until analysis. The bioanalytical work was performed using a LC-MS/MS system.

IDH2 R140Q = molecular target: T1, IDH2 R140Q (Homo sapiens, UniProt P48735, R140Q); assay: IC50 measurement against IDH2 R140Q (diaphorase/resazurin detection); format: biochemical
T1 sequence (P48735 40-452 R140Q): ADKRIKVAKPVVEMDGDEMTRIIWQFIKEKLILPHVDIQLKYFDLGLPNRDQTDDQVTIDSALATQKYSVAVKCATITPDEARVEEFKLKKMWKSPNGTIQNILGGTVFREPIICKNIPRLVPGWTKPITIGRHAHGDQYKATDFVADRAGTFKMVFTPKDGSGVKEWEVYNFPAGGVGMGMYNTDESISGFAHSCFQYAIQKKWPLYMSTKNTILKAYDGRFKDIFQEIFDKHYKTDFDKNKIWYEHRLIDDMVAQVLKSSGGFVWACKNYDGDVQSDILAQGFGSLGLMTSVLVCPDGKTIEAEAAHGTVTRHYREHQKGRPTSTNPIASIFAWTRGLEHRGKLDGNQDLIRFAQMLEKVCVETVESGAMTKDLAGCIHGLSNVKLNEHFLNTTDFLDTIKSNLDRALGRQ
Description: Compounds were tested in 10-dose IC50 mode with 3-fold serial dilution at a starting concentration of 10 μM. Substrate and co-factor were 8000 μM α-Ketoglutarate and 15 μM NADPH (reduced form of nicotinamide adenine dinucleotide phosphate). The reaction was carried out by mixing compound solutions with enzyme (IDH2 R140Q) and pre-incubated for 60 minutes. Then a four-fold substrate mixture was delivered to initiate the reaction. The solutions were incubated for 45 minutes at room temperature. Detection was performed using diaphorase and resazurin and measured in Envision (Perkin-Elmer). (Ex/Em=535/590 nm).

[3] = Average of four animals, 1 mg/Kg IV, monkey
[4] = animal MK-101, 1 mg/Kg IV, monkey
[5] = animal MK-201, 1 mg/Kg IV, monkey
[6] = animal MK-301, 1 mg/Kg IV, monkey
[7] = animal MK-401, 1 mg/Kg IV, monkey

Compound	formation of hydroxylation product on aromatic ring compared to enasidenib ([1]; FIG. 3)	hydroxylation on the side chain compared to enasidenib ([1]; FIG. 3)	formation of de-alkylation product compared to enasidenib ([1]; FIG. 4)	AUC Differentiation (%) ([2]; Average)	AUC Differentiation (%) ([2]; animal MK-101)	AUC Differentiation (%) ([2]; animal MK-201)	AUC Differentiation (%) ([2]; animal MK-301)	AUC Differentiation (%) ([2]; animal MK-401)	AUC [2, 3]	AUC [2, 4]	AUC [2, 5]	AUC [2, 6]	AUC [2, 7]	DMPK property over enasidenib (drug exposure AUC and half-life) ([2]; monkey, 1 mg/Kg IV)	IC50 (IDH2 R140Q)	IC50 difference from that of enasidenib (IDH2 R140Q)
[2H]C([2H])([2H])C(O)(C([2H])([2H])[2H])C([2H])([2H])Nc1nc(Nc2ccnc(C(F)(F)F)c2)nc(-c2cccc(C(F)(F)F)n2)n1 [D8-Enasidenib]	similar	greatly reduced	significantly slowed down	62.0%	15.3%	69.1%	140%	23.5%	7900 ng·h/mL	8970 ng·h/mL	5810 ng·h/mL	10300 ng·h/mL	6530 ng·h/mL	superior DMPK property over enasidenib	360 nM	≤ 10%
CC(C)(O)CNc1nc(Nc2ccnc(C(F)(F)F)c2)nc(-c2cccc(C(F)(F)F)n2)n1 [Enasidenib, enasidenib, reference compound]									5200 ng·h/mL	7780 ng·h/mL	3440 ng·h/mL	4290 ng·h/mL	5290 ng·h/mL		362 nM	

From US9688659B2, “Deuterated compounds for treating hematologic malignancies, and compositions and methods thereof” (NeuForm Pharmaceuticals, Inc., priority 2015, dated 2017)
